Columns and labels:
[1] = Oral bioavailability in male Wistar Han rat at 30 mg/kg by LC-MS/MS analysis; type: ADME, organism-based; settings: in vivo
[2] = Cmax in female minipig at 3 mg/kg,po by LC-MS/MS analysis; type: ADME, organism-based, Sus scrofa domesticus; design: dose 3 mg/kg, route po; settings: pig, in vivo
[3] = Half life in male minipig at 10 mg/kg,po by LC-MS/MS analysis; type: ADME, organism-based, Sus scrofa domesticus; settings: pig, in vivo
[4] = Volume of distribution at steady state in minipig at 2 mg/kg,iv by LC-MS/MS analysis; type: ADME, organism-based, Sus scrofa domesticus; settings: pig, in vivo, read-out: Vdss
[5] = Half life in female minipig at 10 mg/kg,po by LC-MS/MS analysis; type: ADME, organism-based, Sus scrofa domesticus; settings: pig, in vivo
[6] = Tmax in female cynomolgus monkey at 30 mg/kg,po by LC-MS/MS analysis; type: ADME, organism-based, Macaca fascicularis; settings: in vivo
[7] = Tmax in male cynomolgus monkey at 10 mg/kg,po by LC-MS/MS analysis; type: ADME, organism-based, Macaca fascicularis; settings: in vivo
[8] = Cmax in female minipig at 10 mg/kg,po by LC-MS/MS analysis; type: ADME, organism-based, Sus scrofa domesticus; design: dose 10 mg/kg, route po; settings: pig, in vivo
[9] = Oral bioavailability in male minipig at 3 mg/kg by LC-MS/MS analysis; type: ADME, organism-based, Sus scrofa domesticus; settings: pig, in vivo
[10] = Half life in male Wistar Han rat at 30 mg/kg,po by LC-MS/MS analysis; type: ADME, organism-based; settings: in vivo
[11] = Oral bioavailability in male Wistar Han rat at 10 mg/kg by LC-MS/MS analysis; type: ADME, organism-based; settings: in vivo
[12] = AUClast in Wistar Han rat at 2 mg/kg,iv by LC-MS/MS analysis; type: ADME, organism-based; design: dose 2 mg/kg, route iv; settings: in vivo
[13] = Cmax in male minipig at 3 mg/kg,po by LC-MS/MS analysis; type: ADME, organism-based, Sus scrofa domesticus; design: dose 3 mg/kg, route po; settings: pig, in vivo
[14] = AUClast in male cynomolgus monkey at 30 mg/kg,po by LC-MS/MS analysis; type: ADME, organism-based, Macaca fascicularis; design: dose 30 mg/kg, route po; settings: in vivo
[15] = Clearance in mouse plasma at 1 mg/kg,iv; type: ADME, organism-based
[16] = Tmax in female minipig at 30 mg/kg,po by LC-MS/MS analysis; type: ADME, organism-based, Sus scrofa domesticus; settings: pig, in vivo
[17] = AUClast in female Wistar Han rat at 10 mg/kg,po by LC-MS/MS analysis; type: ADME, organism-based; design: dose 10 mg/kg, route po; settings: in vivo
Cytochrome P450 2D6 = Cytochrome P450 2D6 (Homo sapiens, UniProt P10635); experiment: Inhibition of CYP2D6 (unknown origin); type: ADME
[18] = AUClast in male Wistar Han rat at 30 mg/kg,po by LC-MS/MS analysis; type: ADME, organism-based; design: dose 30 mg/kg, route po; settings: in vivo
[19] = AUC (0-infinity) in mouse plasma at 1 mg/kg,iv; type: ADME, organism-based; design: dose 1 mg/kg, route iv; settings: in vivo
[20] = Tmax in male Wistar Han rat at 30 mg/kg,po by LC-MS/MS analysis; type: ADME, organism-based; settings: in vivo
[21] = Half life in female Wistar Han rat at 10 mg/kg,po by LC-MS/MS analysis; type: ADME, organism-based; settings: in vivo
[22] = AUClast in male cynomolgus monkey at 10 mg/kg,po by LC-MS/MS analysis; type: ADME, organism-based, Macaca fascicularis; design: dose 10 mg/kg, route po; settings: in vivo
[23] = Half life in male Wistar Han rat at 3 mg/kg,po by LC-MS/MS analysis; type: ADME, organism-based; settings: in vivo
[24] = Half life in male cynomolgus monkey at 10 mg/kg,po by LC-MS/MS analysis; type: ADME, organism-based, Macaca fascicularis; settings: in vivo
[25] = Oral bioavailability in male minipig at 30 mg/kg by LC-MS/MS analysis; type: ADME, organism-based, Sus scrofa domesticus; settings: pig, in vivo
[26] = Cmax in female minipig at 30 mg/kg,po by LC-MS/MS analysis; type: ADME, organism-based, Sus scrofa domesticus; design: dose 30 mg/kg, route po; settings: pig, in vivo
[27] = Oral bioavailability in female minipig at 10 mg/kg by LC-MS/MS analysis; type: ADME, organism-based, Sus scrofa domesticus; settings: pig, in vivo
[28] = Clearance in Wistar Han rat at 2 mg/kg,iv by LC-MS/MS analysis; type: ADME, organism-based; settings: in vivo
[29] = Cmax in male cynomolgus monkey at 10 mg/kg,po by LC-MS/MS analysis; type: ADME, organism-based, Macaca fascicularis; design: dose 10 mg/kg, route po; settings: in vivo
[30] = Oral bioavailability in female minipig at 30 mg/kg by LC-MS/MS analysis; type: ADME, organism-based, Sus scrofa domesticus; settings: pig, in vivo
[31] = Oral bioavailability in female minipig at 3 mg/kg by LC-MS/MS analysis; type: ADME, organism-based, Sus scrofa domesticus; settings: pig, in vivo
[32] = Oral bioavailability in rat plasma at 3 mg/kg; type: ADME, organism-based; settings: plasma
[33] = Tmax in male minipig at 3 mg/kg,po by LC-MS/MS analysis; type: ADME, organism-based, Sus scrofa domesticus; settings: pig, in vivo
[34] = Half life in cynomolgus monkey at 2 mg/kg,iv by LC-MS/MS analysis; type: ADME, organism-based, Macaca fascicularis; settings: in vivo
[35] = Half life in female minipig at 3 mg/kg,po by LC-MS/MS analysis; type: ADME, organism-based, Sus scrofa domesticus; settings: pig, in vivo
[36] = AUClast in male Wistar Han rat at 10 mg/kg,po by LC-MS/MS analysis; type: ADME, organism-based; design: dose 10 mg/kg, route po; settings: in vivo
[37] = Tmax in male minipig at 30 mg/kg,po by LC-MS/MS analysis; type: ADME, organism-based, Sus scrofa domesticus; settings: pig, in vivo
[38] = Cmax in female cynomolgus monkey at 3 mg/kg,po by LC-MS/MS analysis; type: ADME, organism-based, Macaca fascicularis; design: dose 3 mg/kg, route po; settings: in vivo
[39] = AUClast in female Wistar Han rat at 30 mg/kg,po by LC-MS/MS analysis; type: ADME, organism-based; design: dose 30 mg/kg, route po; settings: in vivo
[40] = Half life in female minipig at 30 mg/kg,po by LC-MS/MS analysis; type: ADME, organism-based, Sus scrofa domesticus; settings: pig, in vivo
[41] = Octanol-water partition coefficient, logD of the compound at pH 7.4; type: physicochemical
[42] = AUClast in male minipig at 30 mg/kg,po by LC-MS/MS analysis; type: ADME, organism-based, Sus scrofa domesticus; design: dose 30 mg/kg, route po; settings: pig, in vivo
[43] = Cmax in male Wistar Han rat at 10 mg/kg,po by LC-MS/MS analysis; type: ADME, organism-based; design: dose 10 mg/kg, route po; settings: in vivo
[44] = Tmax in female cynomolgus monkey at 10 mg/kg,po by LC-MS/MS analysis; type: ADME, organism-based, Macaca fascicularis; settings: in vivo
[45] = Oral bioavailability in female Wistar Han rat at 30 mg/kg by LC-MS/MS analysis; type: ADME, organism-based; settings: in vivo
[46] = AUClast in male cynomolgus monkey at 3 mg/kg,po by LC-MS/MS analysis; type: ADME, organism-based, Macaca fascicularis; design: dose 3 mg/kg, route po; settings: in vivo
[47] = Clearance in human hepatocyte at 2 uM measured upto 120 mins by LC-MS/MS analysis; type: ADME, cell-based; settings: hepatocytes
[48] = Tmax in female Wistar Han rat at 30 mg/kg,po by LC-MS/MS analysis; type: ADME, organism-based; settings: in vivo
Cytochrome P450 3A4 = Cytochrome P450 3A4 (Homo sapiens, UniProt P08684); experiment: Inhibition of CYP3A4 (unknown origin); type: ADME
[49] = Half life in male cynomolgus monkey at 3 mg/kg,po by LC-MS/MS analysis; type: ADME, organism-based, Macaca fascicularis; settings: in vivo
[50] = Clearance in rat hepatocyte at 2 uM measured upto 120 mins by LC-MS/MS analysis; type: ADME, cell-based; settings: hepatocytes
[51] = Half life in male Wistar Han rat at 10 mg/kg,po by LC-MS/MS analysis; type: ADME, organism-based; settings: in vivo
[52] = AUC (0-infinity) in rat plasma at 3 mg/kg,po; type: ADME, organism-based; design: dose 3 mg/kg, route po; settings: plasma
Cytochrome P450 2C19 = Cytochrome P450 2C19 (Homo sapiens, UniProt P33261); experiment: Inhibition of CYP2C19 (unknown origin); type: ADME
[53] = AUClast in male minipig at 3 mg/kg,po by LC-MS/MS analysis; type: ADME, organism-based, Sus scrofa domesticus; design: dose 3 mg/kg, route po; settings: pig, in vivo
[54] = AUClast in male minipig at 10 mg/kg,po by LC-MS/MS analysis; type: ADME, organism-based, Sus scrofa domesticus; design: dose 10 mg/kg, route po; settings: pig, in vivo
[55] = AUC (0-infinity) in mouse liver at 3 mg/kg,po; type: ADME, organism-based; design: dose 3 mg/kg, route po

Cytochrome P450 2C19, sequence (P33261 whole entry): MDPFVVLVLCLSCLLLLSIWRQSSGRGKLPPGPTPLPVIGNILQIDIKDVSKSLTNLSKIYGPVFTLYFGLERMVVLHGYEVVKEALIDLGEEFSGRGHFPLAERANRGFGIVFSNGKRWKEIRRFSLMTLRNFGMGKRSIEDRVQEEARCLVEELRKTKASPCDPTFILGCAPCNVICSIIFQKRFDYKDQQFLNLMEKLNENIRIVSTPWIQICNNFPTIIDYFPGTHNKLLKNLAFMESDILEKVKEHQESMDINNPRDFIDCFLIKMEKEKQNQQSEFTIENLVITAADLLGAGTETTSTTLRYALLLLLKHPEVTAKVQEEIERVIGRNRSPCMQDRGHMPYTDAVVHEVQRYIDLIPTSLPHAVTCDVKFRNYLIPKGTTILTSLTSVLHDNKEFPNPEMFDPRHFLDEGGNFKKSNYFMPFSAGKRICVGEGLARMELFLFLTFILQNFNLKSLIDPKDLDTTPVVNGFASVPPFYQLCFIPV
Cytochrome P450 2D6, sequence (P10635 whole entry): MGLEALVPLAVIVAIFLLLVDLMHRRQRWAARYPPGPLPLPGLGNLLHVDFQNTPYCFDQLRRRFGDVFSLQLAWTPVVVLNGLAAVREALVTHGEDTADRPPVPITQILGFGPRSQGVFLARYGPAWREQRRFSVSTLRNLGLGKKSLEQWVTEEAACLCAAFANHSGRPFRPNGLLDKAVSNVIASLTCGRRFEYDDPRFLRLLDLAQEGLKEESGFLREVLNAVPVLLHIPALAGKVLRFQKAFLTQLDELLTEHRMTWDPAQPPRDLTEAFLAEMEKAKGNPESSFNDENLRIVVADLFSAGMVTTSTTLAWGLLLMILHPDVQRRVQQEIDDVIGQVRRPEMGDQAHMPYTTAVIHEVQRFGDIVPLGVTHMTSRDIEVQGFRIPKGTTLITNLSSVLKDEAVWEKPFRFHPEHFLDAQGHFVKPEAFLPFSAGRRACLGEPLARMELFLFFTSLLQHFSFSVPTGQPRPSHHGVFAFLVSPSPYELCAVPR
Cytochrome P450 3A4, sequence (P08684 whole entry): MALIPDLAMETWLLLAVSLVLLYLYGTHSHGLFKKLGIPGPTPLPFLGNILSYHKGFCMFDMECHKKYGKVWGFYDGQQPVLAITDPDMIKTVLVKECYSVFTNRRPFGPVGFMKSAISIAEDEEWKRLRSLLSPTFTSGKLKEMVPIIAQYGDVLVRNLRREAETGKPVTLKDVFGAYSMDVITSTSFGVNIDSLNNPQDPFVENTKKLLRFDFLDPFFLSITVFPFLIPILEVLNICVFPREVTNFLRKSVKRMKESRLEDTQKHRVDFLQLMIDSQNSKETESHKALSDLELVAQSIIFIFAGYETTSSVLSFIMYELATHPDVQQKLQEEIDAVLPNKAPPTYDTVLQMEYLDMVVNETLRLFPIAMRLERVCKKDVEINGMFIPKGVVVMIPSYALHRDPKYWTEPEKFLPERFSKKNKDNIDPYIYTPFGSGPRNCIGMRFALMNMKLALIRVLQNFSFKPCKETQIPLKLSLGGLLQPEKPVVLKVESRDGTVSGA

bioavailability [1]: 50%
Cmax [2]: 0.046 µg/mL
half-life [3]: 7.28 h
Vd [4]: 1.12 L/kg
half-life [5]: 9.7 h
Tmax [6]: 2 h
Tmax [7]: 2 h
Cmax [8]: 0.132 µg/mL
bioavailability [9]: 12.6%
half-life [10]: 2.79 h
bioavailability [11]: 26.2%
AUC(0-t) [12]: 1.12 µg·h/mL
Cmax [13]: 0.0673 µg/mL
AUC(0-t) [14]: 7.12 µg·h/mL
clearance [15]: 1.2 L/h/kg
Tmax [16]: 2 h
AUC(0-t) [17]: 1.97 µg·h/mL
IC50 (Cytochrome P450 2D6): > 50 µM
AUC(0-t) [18]: 8.5 µg·h/mL
AUC [19]: 0.837 µg·h/mL
Tmax [20]: 1 h
half-life [21]: 1.53 h
AUC(0-t) [22]: 1.43 µg·h/mL
half-life [23]: 1.87 h
half-life [24]: 6.64 h
bioavailability [25]: 20.6%
Cmax [26]: 0.429 µg/mL
bioavailability [27]: 11.4%
clearance [28]: 1.83 L/h/kg
Cmax [29]: 0.298 µg/mL
bioavailability [30]: 12.4%
bioavailability [31]: 10.6%
bioavailability [32]: 14%
Tmax [33]: 0.5 h
half-life [34]: 1.77 h
half-life [35]: 9.68 h
AUC(0-t) [36]: 1.44 µg·h/mL
Tmax [37]: 2 h
Cmax [38]: 0.1 µg/mL
AUC(0-t) [39]: 17.8 µg·h/mL
half-life [40]: 8.26 h
logD [41]: 1.75
AUC(0-t) [42]: 4.15 µg·h/mL
Cmax [43]: 0.512 µg/mL
Tmax [44]: 0.5 h
bioavailability [45]: 105%
AUC(0-t) [46]: 0.28 µg·h/mL
CLhep predicted at 2 µM [47]: 0.336 L/h/kg
Tmax [48]: 2 h
IC50 (Cytochrome P450 3A4): > 50 µM
half-life [49]: 6.25 h
CLhep predicted at 2 µM [50]: 0.66 L/h/kg
half-life [51]: 1.43 h
AUC(0-inf) [52]: 0.07 µg·h/mL
IC50 (Cytochrome P450 2C19): > 50 µM
AUC(0-t) [53]: 0.228 µg·h/mL
AUC(0-t) [54]: 1.24 µg·h/mL
AUC(0-inf) [55]: 8.85 µg·h/mL
SMILES: CCOC(=O)C1=C(CN2CCN3C(=O)N(CC(C)(C)C(=O)O)C[C@@H]3C2)NC(c2nccs2)=N[C@H]1c1cccc(F)c1C [LINVENCORVIR]
